Assay [1] has as its target factor Xa (Homo sapiens, UniProt P00742). The conditions noted are these: slow, tight-binding inhibitor; cited from earlier work.
The subject of assay [2] is factor VIIa, kallikrein, trypsin, chymotrypsin, thrombin, urokinase, plasmin, tissue plasminogen activator, elastase, Staphylococcus aureus V8 protease. The following applies: 300-fold molar excess; cited from earlier work.
For assay [3], the system named is factor Xa. Description: single-stage chromogenic assay of factor Xa inhibition (S-2765). Format: biochemical. The conditions noted are these: chromogenic substrate S-2765, 30 min preincubation; for IC50: read-out: Anti-Xa. The procedure:
A single-stage chromogenic assay of factor Xa inhibition was used to determine this recombinant molecule. Clotting factor Xa was diluted to […] in 10 mM Hepes (pH 7.5) containing 0.1% bovine serum albumin and 150 mM NaCl (HBSA). Fifty microliters of sample (diluted at vary concentrations into HSBA) were incubated for 30 min at room temperature with 100 μl of factor Xa in a 96-well microtiter plate. Fifty microliters of 1 mM S-2765, a chromogenic substrate for factor Xa, was then added, and the initial rate (mOD per min) of substrate hydrolysis over 5 min was measured at 405/650 nm by using a automated plate reader.

In assay [4] the target is integrin αIIbβ3 (glycoprotein GP IIb/IIIa) on human platelets (human) (UniProt P08514). Nature of the assay: cell-based or functional assay.
For assay [5], the system named is platelets. Nature of the assay: collagen-induced platelet aggregation. The following applies: for IC50: molar value (MW of Repro assumed 42 Kd, Integrilin 720d), read-out: Inhibition of collagen-induced platelet aggregation. Format: cell-based, human. Here is the method: Platelet aggregation was measured by the increase in light transmission as described previously. Briefly, PRP was prepared from citrated human blood, obtained from healthy individuals, by centrifugation at 200×g for 15 mins. […]

Assay [6] has as its system platelets in PRP from citrated human blood. Description: ADP-induced platelet aggregation in PRP (light transmission). The format is cell-based. The following applies: 10 μM ADP; for IC50: molar value (MW of Repro assumed 42 Kd, Integrilin 720d), read-out: Inhibition of ADP-induced platelet aggregation. The procedure: Platelet aggregation was measured by the increase in light transmission as described previously. Briefly, PRP was prepared from citrated human blood, obtained from healthy individuals, by centrifugation at 200×g for 15 mins. Platelet aggregation was induced with 10 μM ADP and measured using a Payton Dual-Aggregometer linked to a chart recorder.
The efficacy of wild-type and five variants of dendroaspin was assessed using ADP-induced platelet aggregation in PRP. The percentage of inhibition of platelet aggregation by these mutant dendroaspins was compared with wild-type dendroaspin and the inhibition of platelet aggregation expressed as IC50 values.

Assay [7] relates to 11 other serine proteases. The conditions noted are these: only protease inhibited among 11 other serine proteases; cited from earlier work.

Where a SMILES comes first, the peptide text is derived from it. Bridges are numbered along the chain shown (N, C = ends). [ ]: non-standard residue; d: D form. hArg = N=C(N)NCCCC[C@H](N)C(=O)O; Mpa = O=C(O)CCS

Sequence of factor Xa (Homo sapiens, UniProt P00742) (P00742 235-488 limits assumed): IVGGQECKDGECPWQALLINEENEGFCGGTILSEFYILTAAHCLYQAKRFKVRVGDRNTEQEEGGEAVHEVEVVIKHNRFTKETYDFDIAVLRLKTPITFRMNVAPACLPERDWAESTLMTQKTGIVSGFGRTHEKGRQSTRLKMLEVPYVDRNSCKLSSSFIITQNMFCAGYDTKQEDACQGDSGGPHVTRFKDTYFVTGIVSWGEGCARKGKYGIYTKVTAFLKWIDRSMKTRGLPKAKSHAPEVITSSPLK
Sequence of factor Xa (Homo sapiens, UniProt P00742) (P00742 41-179 partner limits assumed): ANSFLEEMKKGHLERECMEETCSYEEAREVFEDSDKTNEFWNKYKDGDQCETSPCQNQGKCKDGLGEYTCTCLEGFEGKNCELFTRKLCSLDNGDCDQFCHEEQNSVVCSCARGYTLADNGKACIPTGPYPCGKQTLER

For the molecule “TAP: tick anticoagulant peptide from Ornithodoros moubata, factor Xa inhibitor (YNRLCIKPRDWIDECDSNEGGERAYFRNGKGGCDSFWICPEDHTGADYYSSYRDCFNACI)”, the Ki in assay [1] is 0.588 nM. Besides, the “effect on other proteases” value in assay [2] is given as “no effect”. Moreover, in assay [3], the Anti-Xa lay within 0.02 to 0.07 µg/mL and the IC50 was in the range of 2.8 to 10 nM.

Dendroaspin (ligand) gave an Inhibition of ADP-induced platelet aggregation in assay [4] of 1.2 µg/mL.

With “Repro: also known as 7E3, a known inhibitor of integrin-mediated binding; MW assumed 42 Kd”, in assay [5], the “Inhibition of collagen-induced platelet aggregation” value came to 3.80 µg/mL and the IC50 was 90 nM. Further, in assay [6], the “Inhibition of ADP-induced platelet aggregation” value turned out to be 3.2 µg/mL and the IC50 is 76 nM.

On to `N=C(N)NCCCC[C@@H]1NC(=O)CCSSC[C@@H](C(N)=O)NC(=O)[C@@H]2CCCN2C(=O)[C@H](Cc2c[nH]c3ccccc23)NC(=O)[C@H](CC(=O)O)NC(=O)CNC1=O` [Integrilin] ([Mpa][hArg]GDWPC-NH2; disulfide 1-7), for which, in assay [5], the “Inhibition of collagen-induced platelet aggregation” value was determined as 0.23 µg/mL and the IC50 was determined as 319 nM. For the same molecule, in assay [6], the “Inhibition of ADP-induced platelet aggregation” value was determined as 0.2 µg/mL and the IC50 is 277 nM.

B1: NAP5: anticoagulant protein of hookworm Ancylostoma caninum, SEQ ID NO:28 (protein)
chain: KAYPECGENEWLDDCGTQKPCEAKCNEEPPEEEDPICRSRGCLLLPACVCKDGFYRDTVIGDCVREEECDQHEIIH
modifications: Description of Artificial Sequence: NAP portion of ND9
Consider B1, for which the “inhibition of Factor Xa” value in assay [7] is given as 50%.

B2: ND9-M3: cleaved ND9 with a fragment of NAP5 linked to dendroaspin, SEQ ID NO:30 (protein)
chain: RSRGCLLLPACVCKDGFYRDTVIGDCVREEECDQHEIIHVGGGGPGPGGGPGGRICYNHLGTKPPTTETCQEDSCYKNIWTFDNIIRRGCGCFTARGDMPGPYCCESDNCNL
modifications: Descriotion of Artificial Sequence: protein fragment ND9-F3
B2: in assay [5], the “Inhibition of collagen-induced platelet aggregation” value is 3.90 µg/mL and the IC50 came out at 240 nM. Also, in assay [3], the Anti-Xa is 2.3 µg/mL and the IC50 stood at 141 nM. Also, in assay [6], the “Inhibition of ADP-induced platelet aggregation” value is 4.2 µg/mL and the IC50 was determined as 260 nM.

Values taken from patent US20040072315A1, “Integrin-binding chimeras” (priority 2003, published 2004).
